Experimental data as given in patent publication US20250040542A1, “USE OF PHENYLPHENALENONES AS A SELECTIVE HERBICIDE” (UNIVERSITE DE LIMOGES, priority 2021, published 2025).

Key:
[1] = system: Tomato Lycopersicon esculentum var Marmande; assay: Greenhouse foliar spraying on plant of interest; assay type: in vivo
Protocol: (§1) A 5 mM stock solution was prepared in 50% v/v ethanol (96°). Next, the solution was further diluted in distilled water to obtain 10 μM for in vitro testing and 50 μM, 75 μM and 100 μM for greenhouse testing. 0.1% v/v of the surfactant IGEPAL-Co 630 was added to the solution in order to obtain a product ready for spraying on seedlings in the greenhouse.
(§2) The different seeds are grown in a greenhouse in commercial potting soil (Terreau Universel, Fertiligene). The seeds were sown in the greenhouse under controlled temperature and humidity conditions (the temperature varies between 15° C. and 30° C. depending on the season, and the relative humidity varies from 50 to 70%). 6 isolated treatments (approximately 10 sprays each) spaced 48 hours apart were carried out one week after germination.
(§3) After 7 weeks, the seedlings were harvested. The roots and aboveground parts were separated and the roots were washed with distilled water and dried on absorbent paper. These materials were then stored at −20° C.
(§4) The formulation in which the active ingredient is 50 μM Anigorufone was tested on a barley+poppy system and on tomato plants, with two treatments spaced 48 hours apart.
(§5) Tests in a greenhouse were carried out. All plants were exposed to 6 treatments with 3 increasing doses spaced 48 hours apart: C1 (50 μM or 13.6 mg/l), C2 (75 μM or 20.4 mg/l), C3 (100 μM or 27.2 mg/l). Harvesting was conducted 7 weeks after germination.

Fishing worms (maggots) = assay: Toxicity test on fishing worms (maggots); assay type: in vivo
Protocol: Fishing worms (maggots) were spray treated with 100 μM (27.2 mg/L) anigorufone. 30 fishing worms were cultured per petri dish and 10 sprays were performed per dish. The fishing worms were cultured under photoperiod conditions (16 h light/8 h dark); 8000 Lux; 22° C.). The experiment was conducted three times. […]

[2] = system: Dandelion (Taraxacum officinale); assay: Greenhouse foliar spraying on weed; assay type: in vivo; parameters: key: least resistant +; most resistant ++++++++; details: 6 treatments spaced 48 hours apart, C1 50 μM, C2 75 μM, C3 100 μM, harvest 7 weeks after germination; ranking among 8 weeds
Protocol: as §1, §2, §3, §5

[3] = Photodegradation test, exposed to sunlight; assay type: physicochemical; details: 100 μM in distilled water
Protocol: A photodegradation test was conducted on 100 μM anigorufone exposed to sunlight. An anigorufone solution was prepared at the studied dose (100 μM) from a stock solution in 50 ml of distilled water in glass flasks. The flasks were placed outside and exposed to full sunlight. The experiment was carried out three times in June 2022 under light conditions corresponding to sunny/partially clear skies. 1 ml of the solution was run through UV-Vis spectrometry and photodegradation was tracked by the decrease in absorbance at 370 nm. […]

Poppy (Papaver rhoeas) = assay: Greenhouse foliar spraying on weed; assay type: in vivo; parameters: key to Resistance (degree of resistance of the weed to the treatments): least resistant +; most resistant ++++++++
Protocol: as §1, §2, §3, §4
Tests in a greenhouse were carried out. All plants were exposed to 6 treatments with 3 increasing doses spaced 48 hours apart: C1 (50 μM or 13.6 mg/l), C2 (75 μM or 20.4 mg/l), C3 (100 μM or 27.2 mg/l). […]

Turnip (Brassica napa) = assay: Greenhouse foliar spraying on plant of interest; assay type: in vivo; details: 6 treatments spaced 48 hours apart, C1 50 μM, C2 75 μM, C3 100 μM, harvest 7 weeks after germination
Protocol: as §1, §2, §3, §5

Corn (Zea mays) = assay: Greenhouse foliar spraying on plant of interest; assay type: in vivo; details: 6 treatments spaced 48 hours apart, C1 50 μM, C2 75 μM, C3 100 μM, harvest 7 weeks after germination
Protocol: as §1, §2, §3, §5

[4] = system: Sunflower (Helianthus annuus); assay: Greenhouse foliar spraying on plant of interest; assay type: in vivo; details: 6 treatments spaced 48 hours apart
Protocol: as §1, §2, §3, §5

Wheat (Triticum sativum) = assay: Greenhouse foliar spraying on plant of interest; assay type: in vivo; details: 6 treatments spaced 48 hours apart, C1 50 μM, C2 75 μM, C3 100 μM, harvest 7 weeks after germination
Protocol: as §1, §2, §3, §5

[5] = system: Spinach (Spinacia oleracea); assay: Greenhouse foliar spraying on plant of interest; assay type: in vivo; details: 6 treatments spaced 48 hours apart, C1 50 μM, C2 75 μM, C3 100 μM, harvest 7 weeks after germination
Protocol: as §1, §2, §3, §5

Onion (Allium cepa) = assay: Greenhouse foliar spraying on plant of interest; assay type: in vivo; details: 6 treatments spaced 48 hours apart, C1 50 μM, C2 75 μM, C3 100 μM, harvest 7 weeks after germination
Protocol: as §1, §2, §3, §5

In the case of `O=C1C(O)=Cc2cccc3ccc(-c4ccccc4)c1c23` [Anigorufone, 2-hydroxy-9-phenylphenalenone], the “growth of tomatoes compared to the control lot” value ([1]; 50 μM, two treatments spaced 48 hours apart, foliar spraying) is reported as “does not affect their growth”, the “growth of tomato plants two months after treatment” value ([1]; 50 μM, two treatments, two months after treatment, compared to untreated plants) is reported as “normal growth” and the effect on tomato ([1]; 6 treatments spaced 48 hours apart, C1 50 μM, C2 75 μM, C3 100 μM, harvest 7 weeks after germination) is reported as “no effect”. For the same compound, the “viability rate of the maggots compared to the control conditions” value (Fishing worms (maggots); spray treated with 100 μM (27.2 mg/L), 10 sprays per dish, 30 worms per dish) was “remains constant”, the “effects on fishing worms” value (Fishing worms (maggots); tested at 100 μM (27.2 mg/L), spray) was “no effects” and the “Resistance (degree of resistance of the weed to the treatments)” value [2] was “++++++++”. For the same compound, the photodegradation ([3]; after 2 weeks) was “degraded almost completely”, the persistent molecules ([3]; after 72 hours, absorbance at 370 nm) was 30-40% and the “herbicidal effect on poppy” value (Poppy (Papaver rhoeas); 50 μM, two treatments spaced 48 hours apart, foliar spraying, 17-day-old seedlings, barley+poppy system) was “dead”. The “Resistance (degree of resistance of the weed to the treatments)” value (Poppy (Papaver rhoeas); 6 treatments spaced 48 hours apart, C1 50 μM, C2 75 μM, C3 100 μM, harvest 7 weeks after germination, ranking among 8 weeds) was “+”, the effect on turnip (Turnip (Brassica napa)) was “no effect” and the effect on corn (Corn (Zea mays)) was “no effect”. For the same compound, the effect on sunflower ([4]; C1 50 μM, C2 75 μM, C3 100 μM, harvest 7 weeks after germination) was “no effect”, the flowering of sunflowers ([4]; treated with C1 (50 μM) and C2 (75 μM)) was “flowering induction” and the effect on wheat (Wheat (Triticum sativum)) was “no effect”. For the same compound, the effect on spinach [5] was “no effect” and the effect on onion (Onion (Allium cepa)) was “no effect”.
